Structures can show the parent of a compound that is named as a salt. Where two headings read alike, the source gives them in different places.
How the values were obtained:
[1] = test system: IL-1β cytokine output from THP-1s; assay: THP-1 AlphaLISA IL-1β cytokine inhibition assay; format: cell-based; details: for IC50: LPS then nigericin; for IL-1β lowering, result in words: THP-1 IL-1β assay
Procedure: Measuring Inhibitory Effects on IL-1β Cytokine Output from THP-1s
The cytokine inhibition profiles of compounds of formula (I) were determined in a differentiated THP-1 cell assay. All assays were performed in RPMI-1640 growth medium (Gibco), supplemented with 10% fetal bovine serum (FBS; Gibco), 1% penicillin-streptomycin and 1% sodium pyruvate unless specified otherwise. The IL-1β cytokine inhibition assay was run in a background of differentiated THP-1 cells as described below. All reagents described were from Sigma-Aldrich unless specified otherwise. Compounds were prepared as 10 mM DMSO stocks.
THP-1 cells were expanded as a suspension up to 80% confluence in appropriate growth medium. Cells were harvested, suspended, and treated with an appropriate concentration of phorbol 12-myristate 13-acetate (PMA) over a 72 hr period (37° C./5% CO2).
Following 72 hrs of THP-1 cell incubation, cellular medium was removed and replaced with fresh growth media containing 1% of FBS. Working concentrations of compounds were prepared separately in 10% FBS treated growth medium and pre-incubated with the cells for 30 minutes (37° C./5% CO2). Following the 30 minute compound pre-incubation, THP-1s were treated with an appropriate concentration of LPS and the cells were subsequently incubated for a 24 hr period (37° C./5% CO2). An appropriate final concentration of Nigericin was then dispensed into the THP-1 plates and incubated for 1 hour (37° C./5% CO2) before THP-1 supernatants were harvested and collected in separate polypropylene 96-well holding plates.
Reagents from an IL-1β and IL-6 commercial kit (Perkin Elmer) were prepared and run according to the manufacturer's instructions. Subsequently, fluorescence signal detection in a microplate reader was measured (EnVision® Multilabel Reader, Perkin Elmer).
Percentage inhibition was calculated per cytokine by normalising the sample data to the high and low controls used within each plate (+/− LPS respectively).

[2] = test system: NRF2 (nuclear factor erythroid 2-related factor 2); assay: NRF2 +/-GSH activation assay (DiscoverX PathHunter NRF2 translocation kit, U2OS cells); format: cell-based; details: for NRF2 activation +GSH Emax / NRF2 activation −GSH Emax: normalised to DMF high control
Procedure: Measuring Compound Activation Effects on the Anti-Inflammatory Transcription Factor NRF2 in DiscoverX PathHunter NRF2 Translocation Kit
Potency and efficacy of compounds of formula (I) against the target of interest to activate NRF2 (nuclear factor erythroid 2-related factor 2) were determined using the PathHunter NRF2 translocation kit (DiscoverX). The NRF2 translocation assay was run using an engineered recombinant cell line, utilising enzyme fragment complementation to determine activation of the Keap1-NRF2 protein complex and subsequent translocation of NRF2 into the nucleus. Enzyme activity was quantified using a chemiluminescent substrate consumed following the formation of a functional enzyme upon PK-tagged NRF2 translocation into the nucleus.
The assay was run under both +/−GSH (glutathione) conditions to determine the sensitivity of the compounds' NRF2-activating abilities to attenuation by GSH.
Additionally, a defined concentration of DMF was used as the ‘High’ control to normalise test compound activation responses to.
U2OS PathHunter eXpress cells were thawed from frozen prior to plating. Following plating, U2OS cells were incubated for 24 hrs (37° C./5% CO2) in commercial kit provided cell medium.
Following 24 hrs of U2OS incubation, cells were directly treated with an appropriate final concentration of compound, for −GSH conditions or, for +GSH conditions, an intermediate plate containing 6× working concentrations of compound stocks was prepared in a 6 mM working concentration of GSH solution (solubilised in sterile PBS). Following a 30 minute compound-GSH pre-incubation (37° C./5% CO2) for +GSH treatment, plated U2OS cells were incubated with an appropriate final concentration of compound and GSH.
Following compound (+/−GSH) treatment, the U2OS plates were incubated for a further 6 hours (37° C./5% CO2) before detection reagent from the PathHunter NRF2 commercial kit was prepared and added to test plates according to the manufacturer's instructions. Subsequently, the luminescence signal detection was measured in a microplate reader (PHERAstar®, BMG Labtech).
Percentage activation was calculated by normalising the sample data to the high and low controls used within each plate (+/−DMF).

[3] = +GSH, 30 minute compound-GSH pre-incubation, read-out: NRF2 activation +GSH EC50
[4] = −GSH, U2OS PathHunter cells, 6 hours compound treatment, read-out: NRF2 activation −GSH EC50
[5] = Homo sapiens, THP-1, differentiated THP-1 cells

C=C(Cc1nc(-c2ccc(OC(C)CC)cc2)no1)C(=O)O (stereo in doubt) [Example 145, (S)-2-((3-(4-(sec-butoxy)phenyl)-1,2,4-oxadiazol-5-yl)methyl)acrylic acid]
IC50 ([1]; differentiated THP-1 cells): 35.6 µM | EC50 [2, 3]: 31.4 µM | NRF2 activation +GSH Emax ([2]; +GSH): 135% | EC50 [2, 4]: 28.4 µM | NRF2 activation −GSH Emax ([2]; −GSH): 170%

C=C(Cc1ncn(CCCCCCCC)n1)C(=O)O [Example 13, 2-((1-octyl-1H-1,2,4-triazol-3-yl)methyl)acrylic acid]
IC50 [1, 5]: > 100 µM | IL-1β lowering, result in words [1]: not effective | EC50 [2, 3]: 48.6 µM | NRF2 activation +GSH Emax ([2]; +GSH): 51% | EC50 [2, 4]: 43.1 µM | NRF2 activation −GSH Emax ([2]; −GSH): 54%

C=C(Cc1nc(C2(c3ccccc3Cl)CC2)no1)C(=O)O [Example 24, 2-((3-(1-(2-chlorophenyl)cyclopropyl)-1,2,4-oxadiazol-5-yl)methyl)acrylic acid]
IC50 [1, 5]: > 100 µM | IL-1β lowering, result in words [1]: not effective | EC50 [2, 3]: > 100 µM | NRF2 activation +GSH Emax ([2]; +GSH): 17% | EC50 [2, 4]: 42.4 µM | NRF2 activation −GSH Emax ([2]; −GSH): 57%

C=C(Cc1nc(Cc2cccc(CCCC)c2)no1)C(=O)O [Example 29, 2-((3-(3-butylbenzyl)-1,2,4-oxadiazol-5-yl)methyl)acrylic acid]
IC50 [1, 5]: 22.8 µM | EC50 [2, 3]: 11.2 µM | NRF2 activation +GSH Emax ([2]; +GSH): 183% | EC50 [2, 4]: 7.6 µM | NRF2 activation −GSH Emax ([2]; −GSH): 179%

C=C(Cc1nc(CCCc2ccc(Cl)cc2)no1)C(=O)O [Example 33, 2-((3-(3-(4-chlorophenyl)propyl)-1,2,4-oxadiazol-5-yl)methyl)acrylic acid]
IC50 [1, 5]: 83.5 µM | EC50 [2, 3]: 23.3 µM | NRF2 activation +GSH Emax ([2]; +GSH): 160% | EC50 [2, 4]: 18.3 µM | NRF2 activation −GSH Emax ([2]; −GSH): 150%

C=C(Cc1nc(CCCCCCC(F)(F)CF)no1)C(=O)O [Example 47, 2-((3-(7,7,8-trifluorooctyl)-1,2,4-oxadiazol-5-yl)methyl)acrylic acid]
IC50 [1, 5]: > 100 µM | IL-1β lowering, result in words [1]: not effective | EC50 [2, 3]: 47.1 µM | NRF2 activation +GSH Emax ([2]; +GSH): 86% | EC50 [2, 4]: 41.4 µM | NRF2 activation −GSH Emax ([2]; −GSH): 131%

C=C(Cc1nc(C2CCCCC2)no1)C(=O)O [Example 64, 2-((3-cyclohexyl-1,2,4-oxadiazol-5-yl)methyl)acrylic acid]
IC50 [1, 5]: > 100 µM | IL-1β lowering, result in words [1]: not effective | EC50 [2, 3]: > 100 µM | NRF2 activation +GSH Emax ([2]; +GSH): 17% | EC50 [2, 4]: > 100 µM | NRF2 activation −GSH Emax ([2]; −GSH): 86%

C=C(Cc1nc(C2CCCCCC2)no1)C(=O)O [Example 65, 2-((3-cycloheptyl-1,2,4-oxadiazol-5-yl)methyl)acrylic acid]
IC50 [1, 5]: > 100 µM | IL-1β lowering, result in words [1]: not effective | EC50 [2, 3]: > 100 µM | NRF2 activation +GSH Emax ([2]; +GSH): 17% | EC50 [2, 4]: > 100 µM | NRF2 activation −GSH Emax ([2]; −GSH): 50%

C=C(Cc1nc(C23CC4CC(CC(C4)C2)C3)no1)C(=O)O [Example 66, 2-((3-(adamantan-1-yl)-1,2,4-oxadiazol-5-yl)methyl)acrylic acid]
IC50 [1, 5]: > 100 µM | IL-1β lowering, result in words [1]: not effective | EC50 [2, 3]: > 100 µM | NRF2 activation +GSH Emax ([2]; +GSH): 14% | EC50 [2, 4]: > 100 µM | NRF2 activation −GSH Emax ([2]; −GSH): 23%

C=C(Cc1noc(Cc2ccc(CCCC)cc2)n1)C(=O)O [Example 95, 2-((5-(4-butylbenzyl)-1,2,4-oxadiazol-3-yl)methyl)acrylic acid]
IC50 [1, 5]: > 31.6 µM | EC50 [2, 3]: 3.9 µM | NRF2 activation +GSH Emax ([2]; +GSH): 183% | EC50 [2, 4]: 2.8 µM | NRF2 activation −GSH Emax ([2]; −GSH): 217%

C=C(Cc1noc(-c2ccc(OCCCC)cc2)n1)C(=O)O [Example 96, 2-((5-(4-butoxyphenyl)-1,2,4-oxadiazol-3-yl)methyl)acrylic acid]
IC50 [1, 5]: > 31.6 µM | EC50 [2, 3]: 12.4 µM | NRF2 activation +GSH Emax ([2]; +GSH): 115% | EC50 [2, 4]: 11.7 µM | NRF2 activation −GSH Emax ([2]; −GSH): 170%

C=C(Cc1noc(C2(c3ccc(OC(F)(F)F)cc3)CC2)n1)C(=O)O [Example 99, 2-((5-(1-(4-(trifluoromethoxy)phenyl)cyclopropyl)-1,2,4-oxadiazol-3-yl)methyl)acrylic acid]
IC50 [1, 5]: 52.3 µM

C=C(Cc1nc(C2(c3ccc(OC4CC4)cc3)CC2)no1)C(=O)O [Example 114]
IC50 [1, 5]: 55.2 µM

C=C(Cc1nc(-c2ccc(Br)cc2)no1)C(=O)O [Example 118, 2-((3-(4-bromophenyl)-1,2,4-oxadiazol-5-yl)methyl)acrylic acid]
IC50 [1, 5]: 59.6 µM

C=C(Cc1nc(-c2ccc(I)cc2)no1)C(=O)O [Example 119, 2-((3-(4-iodophenyl)-1,2,4-oxadiazol-5-yl)methyl)acrylic acid]
IC50 [1, 5]: 59.6 µM

C=C(Cc1nc(-c2ccc(S(F)(F)(F)(F)F)cc2)no1)C(=O)O [Example 121, 2-((3-(4-(pentafluoro-λ^6-sulfaneyl)phenyl)-1,2,4-oxadiazol-5-yl)methyl)acrylic acid]
IC50 [1, 5]: 61.8 µM

C=C(Cc1nc(C2(c3ccc(S(=O)(=O)C(F)(F)F)cc3)CC2)no1)C(=O)O [Example 122, 2-((3-(1-(4-((trifluoromethyl)sulfonyl)phenyl)cyclopropyl)-1,2,4-oxadiazol-5-yl)methyl)acrylic acid]
IC50 [1, 5]: 75.5 µM

C=C(Cc1nc(CCCC)c(CCCC)o1)C(=O)O [Example 123, 2-((4,5-dibutyloxazol-2-yl)methyl)acrylic acid]
IC50 [1, 5]: > 100 µM | EC50 [2, 3]: 62.4 µM | NRF2 activation +GSH Emax ([2]; +GSH): 42% | EC50 [2, 4]: 6.6 µM | NRF2 activation −GSH Emax ([2]; −GSH): 111%

C=C(Cc1nc(Oc2ccc(CCCC)cc2)no1)C(=O)O [Example 126, 2-((3-(4-butylphenoxy)-1,2,4-oxadiazol-5-yl)methyl)acrylic acid]
IC50 [1, 5]: 32.1 µM

C=C(Cc1nc(-c2ccc(N3CCCC3)cc2)no1)C(=O)O [Example 132, 2-((3-(4-(pyrrolidin-1-yl)phenyl)-1,2,4-oxadiazol-5-yl)methyl)acrylic acid]
IC50 [1, 5]: 29.9 µM

C=C(Cc1nc(Cc2ccc(C(F)(F)F)c(Cl)c2)no1)C(=O)O [Example 137, 2-((3-(3-chloro-4-(trifluoromethyl)benzyl)-1,2,4-oxadiazol-5-yl)methyl)acrylic acid]
IC50 [1, 5]: 60.5 µM

C=C(Cc1nc(Cc2ccc(Br)c(Cl)c2)no1)C(=O)O [Example 139, 2-((3-(4-bromo-3-chlorobenzyl)-1,2,4-oxadiazol-5-yl)methyl)acrylic acid]
IC50 [1, 5]: 41.1 µM

C=C(Cc1nc(C2CCc3c(Cl)cc(Cl)cc32)no1)C(=O)O (stereo not drawn) [Example 148, 2-((3-(4,6-dichloro-2,3-dihydro-1H-inden-1-yl)-1,2,4-oxadiazol-5-yl)methyl)acrylic acid]
IC50 [1, 5]: 42.6 µM

C=C(Cc1nc(-c2ccc(OCCC)cc2)no1)C(=O)O [Example 149, 2-((3-(4-propoxyphenyl)-1,2,4-oxadiazol-5-yl)methyl)acrylic acid]
IC50 [1, 5]: 50 µM

C=C(Cc1nc(C(F)(F)c2ccc(OC)c(Cl)c2)no1)C(=O)O [Example 150, 2-((3-((3-chloro-4-methoxyphenyl)difluoromethyl)-1,2,4-oxadiazol-5-yl)methyl)acrylic acid]
IC50 [1, 5]: 52.7 µM

C=C(Cc1nc(C(F)c2ccc(Cl)cc2)no1)C(=O)O (stereo not drawn) [Example 152, 2-((3-((4-chlorophenyl)fluoromethyl)-1,2,4-oxadiazol-5-yl)methyl)acrylic acid]
IC50 [1, 5]: 36.4 µM

COC(=O)/C=C/C(=O)OC [dimethyl fumarate, reference compound]
EC50 [2, 3]: > 100 µM | NRF2 activation +GSH Emax ([2]; +GSH): 20% | EC50 [2, 4]: 6.1 µM | NRF2 activation −GSH Emax ([2]; −GSH): 100%

Source: US12617762B2, “Carboxy derivatives with antiinflamatory properties” (Sitryx Therapeutics Limited, priority 2019, dated 2026)
